{"source": "paper PMC7882986", "about": "“Simultaneous blocking of the pan‐RAF and S100B pathways as a synergistic therapeutic strategy against malignant melanoma” (Journal of Cellular and Molecular Medicine, 2020)", "system": "p53 transcription activity", "assay": "p53 luciferase reporter assay in A375 cells", "assay_type": "cell-based, human", "conditions": "0.5 μM alone, 12 h", "method": "Transient transfection: A375 cells were seeded in a culture dish overnight before transfection. p53-luciferase plasmid, and TurboFect reagent were mixed together in Dulbecco's modified eagle medium (DMEM) without FBS and the resulting solution was incubated for 20 min at 37 °C. The mixture was then added to the A375 cells in the wells. The cells were incubated for 12 h at 37 °C in a CO2 incubator before use.\nBriefly, A375 cells were seed at a density of 6 × 10^5 cell in a culture dish overnight. The cells were co-transfected with p53-luciferase plasmid in serum-free DMEM medium using TurboFect Transfection Reagent. Then, the transfected cells were seeded in a 24-well plate and treated with an indicated concentration of 1 in 1% FBS medium for 6h. The transfected cells were lysed by the addition of 160 μL Passive Lysis Buffer (PLB). 50 μL of the cell lysates were transferred to a 96-well white plate followed by adding 50 μL of luciferase reporter reagent (LAR). The transcriptional activity was determined by measuring the activity of firefly luciferase in SpectraMax M5 microplate reader (Molecular Devices)."}
{"smiles": "CCCS(=O)(=O)Nc1ccc(F)c(C(=O)c2c[nH]c3ncc(-c4ccc(Cl)cc4)cc23)c1F", "note": "[vemurafenib, reference compound]", "values": [{"measurement": "p53 transcription activity, single agent", "value": "negligible effect"}]}
